Experimental data taken from ChEMBL document CHEMBL4689842, “EUbOPEN Chemogenomics Library wave 1” (2021).

Tests used:
U2OS = experiment: Incucyte cell viability with U2OS; format: toxicity, cell-based; details: human, 10 µM, compound concentration 10 uM
HEK-293T = experiment: Incucyte cell viability with HEK293T; format: toxicity, cell-based; details: human, 10 µM, compound concentration 10 uM
[1] = 0 h, replicate number 1, timepoint 0 hours
[2] = 6 h, replicate number 1, timepoint 6 hours
[3] = 12 h, replicate number 1, timepoint 12 hours
[4] = 18 h, replicate number 1, timepoint 18 hours
[5] = 24 h, replicate number 1, timepoint 24 hours
[6] = 0 h, replicate number 2, timepoint 0 hours
[7] = 12 h, replicate number 2, timepoint 12 hours
[8] = 6 h, replicate number 2, timepoint 6 hours
[9] = 18 h, replicate number 2, timepoint 18 hours
[10] = 24 h, replicate number 2, timepoint 24 hours
Note: filed as whole numbers so only -1 and 0 and 1 occur.

Row | SMILES | Growth Rate (U2OS; [1]) | Growth Rate (U2OS; [2]) | Growth Rate (U2OS; [3]) | Growth Rate (U2OS; [4]) | Growth Rate (U2OS; [5]) | Growth Rate (HEK-293T; [1]) | Growth Rate (HEK-293T; [2]) | Growth Rate (HEK-293T; [3]) | Growth Rate (HEK-293T; [4]) | Growth Rate (HEK-293T; [5]) | Growth Rate (U2OS; [6]) | Growth Rate (U2OS; [7]) | Growth Rate (HEK-293T; [6]) | Growth Rate (U2OS; [8]) | Growth Rate (U2OS; [9]) | Growth Rate (U2OS; [10]) | Growth Rate (HEK-293T; [7]) | Growth Rate (HEK-293T; [10])
1 | CCN(CC)S(=O)(=O)Nc1cccc(-c2ccc3c(NC(=O)C4CC4)n[nH]c3c2)c1 | 0 | 0 | 0 | 0 | 0 | 0 | 0 | 0 | 0 | 0 |  |  |  |  |  |  |  | 
2 | CNc1cc(Oc2cc(C(=O)Nc3cc(N4CCN(C)CC4)cc(C(F)(F)F)c3)ccc2C)ncn1 | 0 | 0 | 0 | 0 | 0 |  | 0 | 0 | 0 | 0 | 1 |  |  |  |  |  |  | 
3 | CCOc1cc(C(=O)N2CCC(N3CCN(C)CC3)CC2)ccc1Nc1ncc2c(n1)N(C1CCCC1)c1ccccc1C(=O)N2C |  | 1 | 0 | 0 | 0 |  | 0 | 0 | 0 | 0 | 0 | 1 | 0 |  |  |  |  | 
4 | CCc1cccc(CC)c1NC(=O)c1nn(C)c2c1CCc1cnc(Nc3ccc(C(=O)NC4CCN(C)CC4)cc3OC(F)(F)F)nc1-2 |  | 1 | 0 | 0 | 0 |  | 0 | 0 | 0 | 0 | 0 |  |  | 0 |  |  |  | 
5 | Cc1ccc(C(=O)Nc2cccc(C(F)(F)F)c2)cc1Nc1nc(-c2cccnc2)nc2c1cnn2C |  | 0 | 0 | 0 | 0 | 0 | 0 | 0 | 0 | 0 |  |  |  |  |  |  |  | 
6 | O=C(Nc1cccnn1)N1CCC(=Cc2cccc(Oc3ccc(C(F)(F)F)cn3)c2)CC1 | 0 | 0 | 0 | 0 | 0 |  | 0 | 0 | 0 | 0 |  | 1 | 1 |  |  |  |  | 
7 | COc1cc2ncnc(Nc3ccc(F)c(Cl)c3)c2cc1NC(=O)/C=C/CN1CCCCC1 [DACOMITINIB ANHYDROUS] | 0 | 0 | 0 | 0 | 0 |  | 0 | 0 | 0 | 0 |  |  |  |  |  |  |  | 
8 | CCNc1cc(N[C@H]2CC[C@H](O)CC2)nc(Nc2ccc3c(ccn3Cc3ccccc3)c2)n1 | 0 | 0 | 0 | 0 | 0 |  | 0 | 0 | 0 | 0 |  |  |  |  |  |  |  | 
9 | COC(=N)c1nc2ccc3ncnc(Nc4ccc(OC)cc4F)c3c2s1 |  |  | 0 | 0 | 0 | 0 | 0 | 0 | 0 | 0 | 1 |  | 1 | 1 |  |  |  | 
10 | C=C1/C(=C\C=C2/CCC[C@]3(C)[C@@H]([C@H](C)/C=C/[C@H](C)C(C)C)CC[C@@H]23)C[C@@H](O)C[C@@H]1O [DOXERCALCIFEROL] | 0 |  | 1 | 1 | 0 | 0 | 0 | 0 | 0 | 0 |  | 0 |  |  | 0 |  |  | 
11 | CNC(=O)c1ccc(Nc2nc(OC3CCCC3)c3c(-c4ccc5nc(C)oc5c4)c[nH]c3n2)c(OC)c1 |  |  | 1 | 0 | 0 |  | 0 | 0 | 0 | 0 |  |  | 1 |  |  |  |  | 
12 | CN1CCN(C(=O)C(C)(C)c2ccc(C(=O)Nc3cn4cc(-c5ccncc5)ccc4n3)cc2)CC1 [T3-CLK] |  | 1 | 0 | 0 | 0 |  | 0 | 0 | 0 | 0 | 0 | 1 | 1 |  | 1 | 1 |  | 
13 | S=C(NCCCc1c[nH]cn1)NCCCN(Cc1ccc(Cl)c(Cl)c1)c1ccc(Br)cn1 |  | -1 | 0 | 0 | 0 |  | 0 | 0 | 0 | 0 |  |  | 0 | 0 |  |  |  | 
14 | O=C(Nc1ccc(-n2nc(-c3cccnc3)cc2C(F)(F)F)cn1)c1ccc(-c2ccccc2)c(F)c1 [BI 2049] |  | 0 | 0 | 0 | 0 | 1 | 0 | 0 | 0 | 0 |  |  |  | 1 |  |  |  | 
15 | CCOc1cc2ncc(C#N)c(Nc3ccc(OCc4ccccn4)c(Cl)c3)c2cc1NC(=O)/C=C/CN(C)C [NERATINIB] |  | 0 | 0 | 0 | 0 | 0 | 0 | 0 | 0 | 0 | 0 |  |  | 1 |  |  |  | 
16 | Cl.O=C(c1ccc(Nc2nccc(-c3cc4ccccc4s3)n2)cc1)N1CCC(N2CCCC2)CC1 |  |  | 0 | 0 | 0 |  | 0 | 0 | 0 | 0 | 0 |  |  |  |  |  |  | 
17 | CCn1cc(-c2ccnc3[nH]c(-c4cccc(CN(C)C)c4)cc23)c(-c2ccc(NC(=O)N(C)C)cc2)n1 [GSK-1070916] | 1 | 0 | 0 | 0 | 0 |  | 0 | 0 | 0 | 0 |  |  | 1 |  |  |  |  | 
18 | C[C@H]1Oc2cc(cnc2N)-c2c(nn(C)c2C#N)CN(C)C(=O)c2ccc(F)cc21 [LORLATINIB] |  | 1 | 1 | 1 | 1 | 0 | 0 | 0 | 0 | 0 | 1 |  |  |  |  |  |  | 
19 | O=C1NC(=O)C(c2cnc3ccccn23)=C1c1cn2c3c(cc(F)cc13)CN(C(=O)N1CCCCC1)CC2 [LY-2090314] | 0 | 0 | 0 | 0 | 0 | 0 | 0 |  | 1 | 1 |  |  |  |  |  |  | 0 | 0
20 | Cc1cn(-c2cc(NC(=O)c3ccc(C)c(Nc4nccc(-c5cccnc5)n4)c3)cc(C(F)(F)F)c2)cn1 [NILOTINIB] |  | 0 | 0 | 0 | 0 | 0 | 0 | 1 | 1 | 0 | 0 |  |  |  | 1 | 1 | 0 | 1
21 | CN(C)C(=O)C(CCN1CCC(O)(c2ccc(Cl)cc2)CC1)(c1ccccc1)c1ccccc1.Cl [LOPERAMIDE HYDROCHLORIDE] |  | 0 | 0 | 0 | 0 |  | 0 | 0 | 0 | 0 |  |  | 1 |  |  |  |  | 
